Results published in ChEMBL document CHEMBL3046587, “Baseline sensitivity of Monilinia laxa from Greece to fenhexamid and analysis of fenhexamid-resistant mutants” (Crop Prot, 2013).
In brackets after ≈: the same amount, converted by molar mass.

Columns and labels:
Monilinia laxa [1] = assay: Fungitoxicity against highly fenhexamid resistant Monilinia laxa MF-2 assessed as reduction in mycelial growth measured at 25 degC after 4 days; format: functional, organism-based; conditions: MF-2, 96 h
Monilinia laxa [2] = assay: Fungitoxicity against wild type Monilinia laxa K2 assessed as reduction in mycelial growth measured at 25 degC after 4 days; format: functional, organism-based; conditions: K2, 96 h
Monilinia laxa [3] = assay: Fungitoxicity against highly fenhexamid resistant Monilinia laxa MF-3 assessed as reduction in mycelial growth measured at 25 degC after 4 days; format: functional, organism-based; conditions: MF-3, 96 h
Monilinia laxa [4] = assay: Fungitoxicity against moderately fenhexamid resistant Monilinia laxa MF-7 assessed as reduction in mycelial growth measured at 25 degC after 4 days; format: functional, organism-based; conditions: MF-7, 96 h
Monilinia laxa [5] = assay: Fungitoxicity against moderately fenhexamid resistant Monilinia laxa MF-6 assessed as reduction in mycelial growth measured at 25 degC after 4 days; format: functional, organism-based; conditions: MF-6, 96 h
Monilinia laxa [6] = assay: Fungitoxicity against moderately fenhexamid resistant Monilinia laxa MF-1 assessed as reduction in mycelial growth measured at 25 degC after 4 days; format: functional, organism-based; conditions: MF-1, 96 h
Monilinia laxa [7] = assay: Fungitoxicity against highly fenhexamid resistant Monilinia laxa MF-5 assessed as reduction in mycelial growth measured at 25 degC after 4 days; format: functional, organism-based; conditions: MF-5, 96 h
Monilinia laxa [8] = assay: Fungitoxicity against moderately fenhexamid resistant Monilinia laxa MF-4 assessed as reduction in mycelial growth measured at 25 degC after 4 days; format: functional, organism-based; conditions: MF-4, 96 h
Monilinia laxa [9] = assay: Fungitoxicity against moderately fenhexamid resistant Monilinia laxa MF-22 assessed as reduction in mycelial growth measured at 25 degC after 4 days; format: functional, organism-based; conditions: MF-22, 96 h
Monilinia laxa [10] = assay: Fungitoxicity against moderately fenhexamid resistant Monilinia laxa MF-8 assessed as reduction in mycelial growth measured at 25 degC after 4 days; format: functional, organism-based; conditions: MF-8, 96 h
Monilinia laxa [11] = assay: Resistance factor, ratio of EC50 for Monilinia laxa MF-4 to EC50 for wild type Monilinia laxa K2; format: functional
Monilinia laxa [12] = assay: Resistance factor, ratio of EC50 for Monilinia laxa MLK12 to EC50 for wild type Monilinia laxa K2; format: functional
Monilinia laxa [13] = assay: Fungitoxicity against Monilinia laxa MF-22 assessed as diameter of mycelial colony measured at 25 degC after 4 days; format: functional
Monilinia laxa [14] = assay: Resistance factor, ratio of EC50 for Monilinia laxa MF-8 to EC50 for wild type Monilinia laxa K2; format: functional
Monilinia laxa [15] = assay: Resistance factor, ratio of EC50 for Monilinia laxa MLX2 to EC50 for wild type Monilinia laxa K2; format: functional
Monilinia laxa [16] = assay: Fungitoxicity against Monilinia laxa MF-5 assessed as diameter of mycelial colony measured at 25 degC after 4 days; format: functional
Monilinia laxa [17] = assay: Resistance factor, ratio of EC50 for Monilinia laxa MF-6 to EC50 for wild type Monilinia laxa K2; format: functional
Monilinia laxa [18] = assay: Fungitoxicity against Monilinia laxa MF-3 assessed as diameter of mycelial colony measured at 25 degC after 4 days; format: functional
Monilinia laxa [19] = assay: Fungitoxicity against Monilinia laxa MF-15 assessed as diameter of mycelial colony measured at 25 degC after 4 days; format: functional
Monilinia laxa [20] = assay: Fungitoxicity against Monilinia laxa MLK12 assessed as diameter of mycelial colony measured at 25 degC after 4 days; format: functional
Monilinia laxa [21] = assay: Resistance factor, ratio of EC50 for Monilinia laxa MF-15 to EC50 for wild type Monilinia laxa K2; format: functional
Monilinia laxa [22] = assay: Fungitoxicity against Monilinia laxa MF-2 assessed as diameter of mycelial colony measured at 25 degC after 4 days; format: functional
Monilinia laxa [23] = assay: Resistance factor, ratio of EC50 for Monilinia laxa MF-22 to EC50 for wild type Monilinia laxa K2; format: functional
Monilinia laxa [24] = assay: Resistance factor, ratio of EC50 for Monilinia laxa MLK6 to EC50 for wild type Monilinia laxa K2; format: functional
Monilinia laxa [25] = assay: Fungitoxicity against Monilinia laxa MF-4 assessed as diameter of mycelial colony measured at 25 degC after 4 days; format: functional
Monilinia laxa [26] = assay: Fungitoxicity against Monilinia laxa MF-1 assessed as diameter of mycelial colony measured at 25 degC after 4 days; format: functional
Monilinia laxa [27] = assay: Resistance factor, ratio of EC50 for Monilinia laxa MF-1 to EC50 for wild type Monilinia laxa K2; format: functional
Monilinia laxa [28] = assay: Resistance factor, ratio of EC50 for Monilinia laxa MF-3 to EC50 for wild type Monilinia laxa K2; format: functional
Monilinia laxa [29] = assay: Resistance factor, ratio of EC50 for Monilinia laxa MF-20 to EC50 for wild type Monilinia laxa K2; format: functional
Monilinia laxa [30] = assay: Fungitoxicity against Monilinia laxa MLBO7 assessed as diameter of mycelial colony measured at 25 degC after 4 days; format: functional
Monilinia laxa [31] = assay: Fungitoxicity against Monilinia laxa MF-20 assessed as diameter of mycelial colony measured at 25 degC after 4 days; format: functional
Monilinia laxa [32] = assay: Resistance factor, ratio of EC50 for Monilinia laxa MLP2 to EC50 for wild type Monilinia laxa K2; format: functional
Monilinia laxa [33] = assay: Fungitoxicity against Monilinia laxa MLP2 assessed as diameter of mycelial colony measured at 25 degC after 4 days; format: functional
Monilinia laxa [34] = assay: Fungitoxicity against Monilinia laxa MLX2 assessed as diameter of mycelial colony measured at 25 degC after 4 days; format: functional
Monilinia laxa [35] = assay: Fungitoxicity against Monilinia laxa MF-8 assessed as diameter of mycelial colony measured at 25 degC after 4 days; format: functional
Monilinia laxa [36] = assay: Resistance factor, ratio of EC50 for Monilinia laxa MLBO7 to EC50 for wild type Monilinia laxa K2; format: functional
Monilinia laxa [37] = assay: Fungitoxicity against Monilinia laxa K2 assessed as diameter of mycelial colony measured at 25 degC after 4 days; format: functional
Monilinia laxa [38] = assay: Resistance factor, ratio of EC50 for Monilinia laxa MLC2 to EC50 for wild type Monilinia laxa K2; format: functional
Monilinia laxa [39] = assay: Fungitoxicity against Monilinia laxa MLC2 assessed as diameter of mycelial colony measured at 25 degC after 4 days; format: functional
Monilinia laxa [40] = assay: Resistance factor, ratio of EC50 for Monilinia laxa MF-7 to EC50 for wild type Monilinia laxa K2; format: functional
Monilinia laxa [41] = assay: Resistance factor, ratio of EC50 for Monilinia laxa MF-2 to EC50 for wild type Monilinia laxa K2; format: functional
Monilinia laxa [42] = assay: Resistance factor, ratio of EC50 for Monilinia laxa MF-5 to EC50 for wild type Monilinia laxa K2; format: functional
Monilinia laxa [43] = assay: Resistance factor, ratio of EC50 for Monilinia laxa MF-19 to EC50 for wild type Monilinia laxa K2; format: functional
Monilinia laxa [44] = assay: Fungitoxicity against Monilinia laxa MF-19 assessed as diameter of mycelial colony measured at 25 degC after 4 days; format: functional
Monilinia laxa [45] = assay: Fungitoxicity against Monilinia laxa MF-7 assessed as diameter of mycelial colony measured at 25 degC after 4 days; format: functional
Monilinia laxa [46] = assay: Fungitoxicity against Monilinia laxa MF-6 assessed as diameter of mycelial colony measured at 25 degC after 4 days; format: functional
Monilinia laxa [47] = assay: Fungitoxicity against Monilinia laxa MLK6 assessed as diameter of mycelial colony measured at 25 degC after 4 days; format: functional

## CCCN(CCOc1c(Cl)cc(Cl)cc1Cl)C(=O)n1ccnc1 [PROCHLORAZ]
Monilinia laxa [1]
  EC50: 0.07 µg/mL (≈ 0.186 µM)
Monilinia laxa [2]
  EC50: 0.01 µg/mL (≈ 0.0265 µM)
Monilinia laxa [3]
  EC50: 0.02 µg/mL (≈ 0.0531 µM)
Monilinia laxa [4]
  EC50: 0.08 µg/mL (≈ 0.212 µM)
Monilinia laxa [5]
  EC50: 0.03 µg/mL (≈ 0.0796 µM)
Monilinia laxa [6]
  EC50: 0.01 µg/mL (≈ 0.0265 µM)
Monilinia laxa [7]
  EC50: 0.01 µg/mL (≈ 0.0265 µM)
Monilinia laxa [8]
  EC50: 0.04 µg/mL (≈ 0.106 µM)
Monilinia laxa [9]
  EC50: 0.02 µg/mL (≈ 0.0531 µM)
Monilinia laxa [10]
  EC50: 0.02 µg/mL (≈ 0.0531 µM)

## CC1(C(=O)Nc2ccc(O)c(Cl)c2Cl)CCCCC1 [FENHEXAMID]
Monilinia laxa [1]
  EC50: 11.1 µg/mL (≈ 36.7 µM)
Monilinia laxa [11]
  Ratio EC50: 40
Monilinia laxa [12]
  Ratio EC50: 2.2
Monilinia laxa [13]
  Activity: 56 mm
Monilinia laxa [14]
  Ratio EC50: 58
Monilinia laxa [2]
  EC50: 0.1 µg/mL (≈ 0.331 µM)
Monilinia laxa [15]
  Ratio EC50: 1.1
Monilinia laxa [16]
  Activity: 57 mm
Monilinia laxa [17]
  Ratio EC50: 58
Monilinia laxa [3]
  EC50: 7.4 µg/mL (≈ 24.5 µM)
Monilinia laxa [18]
  Activity: 60 mm
Monilinia laxa [19]
  Activity: 56 mm
Monilinia laxa [20]
  Activity: 55 mm
Monilinia laxa [4]
  EC50: 2.3 µg/mL (≈ 7.61 µM)
Monilinia laxa [21]
  Ratio EC50: 31
Monilinia laxa [5]
  EC50: 5.8 µg/mL (≈ 19.2 µM)
Monilinia laxa [22]
  Activity: 54 mm
Monilinia laxa [23]
  Ratio EC50: 37
Monilinia laxa [24]
  Ratio EC50: 1.2
Monilinia laxa [6]
  EC50: 2.2 µg/mL (≈ 7.28 µM)
Monilinia laxa [25]
  Activity: 57 mm
Monilinia laxa [7]
  EC50: 6.9 µg/mL (≈ 22.8 µM)
Monilinia laxa [26]
  Activity: 50 mm
Monilinia laxa [27]
  Ratio EC50: 23
Monilinia laxa [8]
  EC50: 4 µg/mL (≈ 13.2 µM)
Monilinia laxa [28]
  Ratio EC50: 75
Monilinia laxa [29]
  Ratio EC50: 34
Monilinia laxa [30]
  Activity: 60 mm
Monilinia laxa [31]
  Activity: 55 mm
Monilinia laxa [32]
  Ratio EC50: 0.3
Monilinia laxa [33]
  Activity: 60 mm
Monilinia laxa [34]
  Activity: 59 mm
Monilinia laxa [35]
  Activity: 58 mm
Monilinia laxa [36]
  Ratio EC50: 0.4
Monilinia laxa [37]
  Activity: 57 mm
Monilinia laxa [38]
  Ratio EC50: 3.7
Monilinia laxa [39]
  Activity: 49 mm
Monilinia laxa [40]
  Ratio EC50: 22
Monilinia laxa [41]
  Ratio EC50: 111
Monilinia laxa [9]
  EC50: 3.7 µg/mL (≈ 12.2 µM)
Monilinia laxa [42]
  Ratio EC50: 70
Monilinia laxa [43]
  Ratio EC50: 43
Monilinia laxa [44]
  Activity: 55 mm
Monilinia laxa [45]
  Activity: 55 mm
Monilinia laxa [10]
  EC50: 5.8 µg/mL (≈ 19.2 µM)
Monilinia laxa [46]
  Activity: 56 mm
Monilinia laxa [47]
  Activity: 52 mm

## CC(C)NC(=O)N1CC(=O)N(c2cc(Cl)cc(Cl)c2)C1=O [IPRODIONE]
Monilinia laxa [1]
  EC50: 0.24 µg/mL (≈ 0.727 µM)
Monilinia laxa [2]
  EC50: 0.25 µg/mL (≈ 0.757 µM)
Monilinia laxa [3]
  EC50: 0.25 µg/mL (≈ 0.757 µM)
Monilinia laxa [4]
  EC50: 0.23 µg/mL (≈ 0.697 µM)
Monilinia laxa [5]
  EC50: 0.32 µg/mL (≈ 0.969 µM)
Monilinia laxa [6]
  EC50: 0.26 µg/mL (≈ 0.787 µM)
Monilinia laxa [7]
  EC50: 0.25 µg/mL (≈ 0.757 µM)
Monilinia laxa [8]
  EC50: 0.19 µg/mL (≈ 0.575 µM)
Monilinia laxa [9]
  EC50: 0.21 µg/mL (≈ 0.636 µM)
Monilinia laxa [10]
  EC50: 0.35 µg/mL (≈ 1.06 µM)

## CCCCCCCCCCCCCN1CC(C)OC(C)C1 (configuration not stated) [TRIDEMORPH]
Monilinia laxa [1]
  EC50: 0.07 µg/mL (≈ 0.235 µM)
Monilinia laxa [2]
  EC50: 0.1 µg/mL (≈ 0.336 µM)
Monilinia laxa [3]
  EC50: 0.11 µg/mL (≈ 0.37 µM)
Monilinia laxa [4]
  EC50: 0.09 µg/mL (≈ 0.302 µM)
Monilinia laxa [5]
  EC50: 0.6 µg/mL (≈ 2.02 µM)
Monilinia laxa [6]
  EC50: 0.4 µg/mL (≈ 1.34 µM)
Monilinia laxa [7]
  EC50: 0.08 µg/mL (≈ 0.269 µM)
Monilinia laxa [8]
  EC50: 0.12 µg/mL (≈ 0.403 µM)
Monilinia laxa [9]
  EC50: 0.1 µg/mL (≈ 0.336 µM)
Monilinia laxa [10]
  EC50: 0.4 µg/mL (≈ 1.34 µM)

## CCCN(CC)CC1COC2(CCC(C(C)(C)C)CC2)O1 (configuration not stated) [SPIROXAMINE]
Monilinia laxa [1]
  EC50: 3.7 µg/mL (≈ 12.4 µM)
Monilinia laxa [2]
  EC50: 3.5 µg/mL (≈ 11.8 µM)
Monilinia laxa [3]
  EC50: 3.6 µg/mL (≈ 12.1 µM)
Monilinia laxa [4]
  EC50: 3.5 µg/mL (≈ 11.8 µM)
Monilinia laxa [5]
  EC50: 12 µg/mL (≈ 40.3 µM)
Monilinia laxa [6]
  EC50: 3.8 µg/mL (≈ 12.8 µM)
Monilinia laxa [7]
  EC50: 3.5 µg/mL (≈ 11.8 µM)
Monilinia laxa [8]
  EC50: 2.9 µg/mL (≈ 9.75 µM)
Monilinia laxa [9]
  EC50: 3.3 µg/mL (≈ 11.1 µM)
Monilinia laxa [10]
  EC50: 3.2 µg/mL (≈ 10.8 µM)
